Results on 12 compounds are retold here after US9856218B2, “Inhibitors of PRMT5 and methods of their use” (Ohio State Innovation Foundation, priority 2013, dated 2018).

pEC50, pIC50: −log10 of the molar value. A value given as a limit tells only on which side of the number the result lay.

Test [1] deals with T1, recombinant human PRMT5/MEP50 enzyme (Homo sapiens, UniProt O14744).
T1 construct: purchased BPS Bioscience
The experiment in a line: Epigenase PRMT methyltransferase (type II-specific) activity/inhibition assay kit. Conditions: 25 ng recombinant human PRMT5/MEP50 per reaction; read-out: Inhibition of PRMT5 mediated H4R3 methylation (IC50). It is filed as biochemical. The protocol:
The inhibition of PRMT5 mediated H4R3 methylation result was obtained with Epigenase™ PRMT methyltransferase (type II-specific) activity/inhibition assay kit. 25 ng recombinant human PRMT5/MEP50 enzyme (purchased from BPS Bioscience) was used in each reaction.

Test [2] concerns Mantle cell lymphoma cell line Jeko. The experiment in a line: MTS anti-proliferation assay. In kind it is cell-based. The protocol: MTS proliferation assays were performed according the CellTiter 96™ Aqueous Cell Proliferation Assay Technical Bulletin (Promega, Madison, Wis.). 5×10^5 cells were plated in each well of a 96-well plate at 37° C. and assayed for proliferation at 24, 48, and 72 hr. Proliferation signal at 50% of control was used as IC50 for growth.
(§1) Following the synthesis of 14 compounds, the anti-proliferation and pro-apoptotic activities of those compounds was evaluated in Mantle cell lymphoma cell line Jeko. Replicate cultures of Jeko were incubated in DMSO and the compounds for 24, 48 and 72 hours. FITC-Annexin V-PI stained flow cytometry was used to detect the apoptotic population of cells (Table 4).

A further test concerns the target T2, recombinant PRMT1 (Rattus norvegicus, UniProt Q63009).
T2 construct: purchased Millipore 14-474
Kind of test: Histone methyltransferase assay, [3H]SAM. It is filed as biochemical. The protocol: (§2) Histone methylation was performed in the presence of DMSO, and 1-40 μM inhibitor compounds. […] After 1.5 h incubation at 30° C., reaction mixtures were spotted on Whatman P-81 filter paper, washed five times with 10 mL of […] sodium carbonate buffer (pH 9.0) to remove unincorporated [3H]SAM, and methylated peptides were detected by scintillation counting.
(§3) Histone methylation was performed in the presence of DMSO, and 1-40 μM HLCL-32, HLCL-10, HLCL-61 and HLCL-64. […] After a 1.5 h incubation at 30° C. reaction mixtures were spotted on Whatman P-81 filter paper, washed five times with 10 mL of […] sodium carbonate buffer (pH 9.0) to remove unincorporated [^3H]SAM, and methylated peptides were detected by scintillation counting.

Test [3] deals with T3, affinity-purified hSWI/SNF associated PRMT5 (Homo sapiens, UniProt O14744).
T3 construct: made in house
T3 sequence (O14744 whole entry): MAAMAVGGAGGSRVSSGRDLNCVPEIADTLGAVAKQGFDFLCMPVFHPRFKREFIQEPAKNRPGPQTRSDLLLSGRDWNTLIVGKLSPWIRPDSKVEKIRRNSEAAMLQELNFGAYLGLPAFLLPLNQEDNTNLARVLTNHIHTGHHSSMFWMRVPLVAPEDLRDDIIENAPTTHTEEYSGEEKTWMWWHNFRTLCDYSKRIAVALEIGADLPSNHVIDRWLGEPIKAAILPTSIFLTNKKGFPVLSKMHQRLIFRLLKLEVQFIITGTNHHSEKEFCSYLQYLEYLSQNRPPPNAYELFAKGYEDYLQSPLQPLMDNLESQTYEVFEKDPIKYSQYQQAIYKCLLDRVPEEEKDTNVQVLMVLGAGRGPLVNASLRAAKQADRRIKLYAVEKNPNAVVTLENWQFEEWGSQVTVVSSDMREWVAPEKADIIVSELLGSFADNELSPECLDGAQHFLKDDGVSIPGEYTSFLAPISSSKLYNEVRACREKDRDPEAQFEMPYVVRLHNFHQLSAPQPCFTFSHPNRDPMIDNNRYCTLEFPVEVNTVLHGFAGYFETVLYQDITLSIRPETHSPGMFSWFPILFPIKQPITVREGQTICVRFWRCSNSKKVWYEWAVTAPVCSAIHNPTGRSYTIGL
T3 sequence (Q9BQA1 whole entry partner): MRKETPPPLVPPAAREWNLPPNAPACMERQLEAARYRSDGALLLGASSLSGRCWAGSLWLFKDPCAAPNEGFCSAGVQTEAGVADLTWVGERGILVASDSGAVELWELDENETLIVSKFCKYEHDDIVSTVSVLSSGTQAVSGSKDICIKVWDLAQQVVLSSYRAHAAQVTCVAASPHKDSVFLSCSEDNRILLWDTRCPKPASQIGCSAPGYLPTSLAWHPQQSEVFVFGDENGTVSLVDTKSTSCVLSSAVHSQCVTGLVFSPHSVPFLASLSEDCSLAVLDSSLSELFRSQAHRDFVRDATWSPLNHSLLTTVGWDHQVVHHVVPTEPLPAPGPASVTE
Kind of test: Histone methyltransferase assay, [3H]SAM. It is filed as biochemical. As to conditions: for inhibition of PRMT5 enzyme: 10 μM, FIG. 17B; for pIC50: FIG. 16, 1-40 μM compound, HeLa S3 core histones, read-out: PRMT5 methylation activity IC50. The protocol:
as §2
Type II PRMT enzymes repress gene transcription and symmetrically dimethylate H3R8 and H4R3, while type I PRMT enzymes activate gene transcription and asymmetrically dimethylate H4R3. Purified PRMT5, PRMT1, PRMT4 and PRMT7 were obtained to perform the assay.
as §3

The subject of test [4] is Mantle cell lymphoma cell line Jeko. The experiment in a line: Induction of apoptosis, FITC-Annexin V-PI flow cytometry. In kind it is cell-based. As to the method: Analysis by flow cytometry. Cell viability was also measured by flow cytometry at 24 and 48 hr using annexin-V-FITC and propidium iodide (PI) according to the manufacturer's instructions (BD Biosciences).
as §1
Background: Flow cytometry measures light scatter and fluorescence of single cells or particles in a stream.

The subject of test [5] is PRMT5 expression and phosphorylation levels in AML cells. Kind of test: PRMT5 expression and phosphorylation after FLT3 inhibition. In kind it is cell-based. Conditions: FIG. 38C.
Procedure: Whole cell lysates were prepared by suspending cell pellets in RIPA buffer for 20 min (1% NP-40, 0.1% SDS, 150 mM NaCl, 50 mM Tris, pH 8.0), then supplemented with 1× complete EDTA free protease inhibitor (Roche) and 1× PhosStop (Roche). Lysates were separated by 4-20% SDS-PAGE and transferred to PVDF membrane (GE Healthcare, Piscataway, N.J.). Membranes were blocked with 5% milk or BSA in 1×TBS with 0.1% Tween 20 for 1 hour at room temperature with shaking. Primary antibodies for ACTIN, GAPDH and FLT3 (Santa Cruz Biotechnology, Santa Cruz Calif.), P65 (Cell signaling), PRMT5 and SP1 (Millipore), H4R3, H3R8, H3 and H4 (Abcam), were diluted 1:1000 or 1:2000 in 5% milk or BSA and incubated for 1-2 hr at room temperature. Membranes were washed using 1×TBS-T, incubated with HRP-conjugated secondary antibodies diluted in 1×TBS-T with 5% milk or BSA, washed, and developed using SuperSignal West Dura Chemiluminescent Substrate (Thermo Scientific).
Setting [6] is: incubation time not given (24, 48, 72 h tested).

T2 sequence (Q63009 whole entry): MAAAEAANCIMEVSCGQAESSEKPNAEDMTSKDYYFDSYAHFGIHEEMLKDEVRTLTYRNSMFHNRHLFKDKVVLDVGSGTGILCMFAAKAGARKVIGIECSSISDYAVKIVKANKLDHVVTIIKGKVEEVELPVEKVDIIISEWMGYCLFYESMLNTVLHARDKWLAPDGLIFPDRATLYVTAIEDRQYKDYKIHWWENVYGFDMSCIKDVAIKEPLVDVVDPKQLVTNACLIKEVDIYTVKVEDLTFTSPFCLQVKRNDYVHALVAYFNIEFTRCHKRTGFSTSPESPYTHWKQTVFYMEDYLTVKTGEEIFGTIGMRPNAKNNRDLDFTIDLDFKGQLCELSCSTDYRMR
T1 sequence (O14744 2-637 limits assumed): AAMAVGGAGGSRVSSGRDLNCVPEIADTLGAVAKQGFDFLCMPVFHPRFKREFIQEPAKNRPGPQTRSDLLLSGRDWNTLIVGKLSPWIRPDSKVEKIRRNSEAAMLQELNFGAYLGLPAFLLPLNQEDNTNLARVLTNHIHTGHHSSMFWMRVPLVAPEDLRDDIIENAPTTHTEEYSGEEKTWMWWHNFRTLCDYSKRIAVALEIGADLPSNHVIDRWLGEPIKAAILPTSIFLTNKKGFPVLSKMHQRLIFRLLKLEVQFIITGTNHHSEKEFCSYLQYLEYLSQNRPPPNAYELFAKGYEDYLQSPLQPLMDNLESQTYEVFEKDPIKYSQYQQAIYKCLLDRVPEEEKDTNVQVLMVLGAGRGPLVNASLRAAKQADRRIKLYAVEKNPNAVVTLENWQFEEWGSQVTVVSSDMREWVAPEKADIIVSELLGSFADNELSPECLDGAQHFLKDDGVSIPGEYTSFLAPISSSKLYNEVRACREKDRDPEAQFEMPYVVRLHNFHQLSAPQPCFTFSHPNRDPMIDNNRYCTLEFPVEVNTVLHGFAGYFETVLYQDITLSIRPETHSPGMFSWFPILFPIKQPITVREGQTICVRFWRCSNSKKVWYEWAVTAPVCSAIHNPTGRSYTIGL
T1 sequence (Q9BQA1 2-342 partner limits assumed): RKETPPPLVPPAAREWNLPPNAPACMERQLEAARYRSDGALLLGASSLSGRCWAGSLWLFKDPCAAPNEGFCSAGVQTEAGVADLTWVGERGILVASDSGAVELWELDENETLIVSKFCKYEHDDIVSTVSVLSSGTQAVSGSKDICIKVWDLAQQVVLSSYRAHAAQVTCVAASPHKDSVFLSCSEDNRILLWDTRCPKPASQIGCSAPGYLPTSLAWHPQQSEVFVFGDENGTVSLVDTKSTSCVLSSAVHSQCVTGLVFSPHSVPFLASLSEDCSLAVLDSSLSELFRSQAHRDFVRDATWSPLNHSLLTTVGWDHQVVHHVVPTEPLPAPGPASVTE

What is called pIC50 is −log10 of the IC50, conventionally taken in molar units. `CCn1c2ccccc2c2cc(CNc3ccc(S(C)(=O)=O)cc3)ccc21` [HLCL-9]: the pIC50 in test [1] and in test [2] (setting [6]) was under 4.30 throughout.
For orientation: pEC50 means the negative decadic logarithm of the EC50, by convention in mol/L. Lower therefore signals a high EC50. With `CCn1c2ccccc2c2cc(CNc3ccc(S(N)(=O)=O)cc3)ccc21` [HLCL-32], the “inhibition of PRMT1 enzyme” value at recombinant PRMT1 (10 μM, FIG. 17B) is “this non-specific activity is lost”; at recombinant PRMT1 (20 μM and above, FIG. 17A), “non-specific inhibition”. Further, the pIC50 in test [1] was under 4.30; in test [3], about 5.30; in test [2] (24 h incubation) it was 4.29; in test [2] (48 h incubation) it was 4.54; in test [2] (72 h incubation), 4.54. Further, the “inhibition of PRMT5 enzyme” value in test [3] is listed as “the only enzyme that is affected is PRMT5”. Besides, the pEC50 in test [4] (24 h) is 4.52; in test [4] (48 h), 4.70.
As to `CS(=O)(=O)c1ccc(/C=C/Cn2c3ccccc3c3ccccc32)cc1` [HLCL-63], the pIC50 in test [1] and in test [2] (setting [6]) was under 4.30 in each case.
Turning to `CS(=O)(=O)c1ccc(NCCn2c3ccccc3c3ccccc32)cc1` [HLCL-23], the pIC50 in test [1] and in test [2] (setting [6]) was under 4.30 each time.
Regarding `CCn1c2ccccc2c2cc(CNCc3ccc(S(C)(=O)=O)cc3)ccc21` [HLCL-10], the “inhibition of PRMT1 enzyme” value was “this non-specific activity is lost” at recombinant PRMT1 (10 μM, FIG. 17B); “non-specific inhibition” on recombinant PRMT1 (20 μM and above, FIG. 17A). Besides, the negative logarithm of the IC50 (pIC50) in test [1] was under 4.30; in test [3], about 5.30; in test [2] (24 h incubation), 4.08; in test [2] (48 h incubation), 4.33; in test [2] (72 h incubation) it was 4.22. For the same compound, in test [3], the “inhibition of PRMT5 enzyme” value is reported as “the only enzyme that is affected is PRMT5”. Besides, the pEC50 in test [4] (24 h) is 4.40; in test [4] (48 h) it was 4.46.
For `CCn1c2ccccc2c2cc(NC(=S)Nc3ccc(S(C)(=O)=O)cc3)ccc21` [HLCL-6], the pIC50 in test [1] and in test [2] (setting [6]) was under 4.30 each time.
With `CS(=O)(=O)c1ccc(Cn2c3ccccc3c3ccccc32)cc1` [HLCL-1], the pIC50 in test [1] and in test [2] (setting [6]) was under 4.30 each time.
Take `CO[C@@H]1[C@H](N(C)C(=O)c2ccccc2)C[C@H]2O[C@]1(C)n1c3ccccc3c3c4c(c5c6ccccc6n2c5c31)C(=O)NC4` [PKC412]: the “PRMT5 expression and phosphorylation levels” value in test [5] was “did not change”.
For the compound `COc1ccc(C(=O)Nc2sc3c(c2C(N)=O)CCCC3)cc1OC` [FLT3 inhibitor (CALBIOCHEM #343020)], the “PRMT5 expression and phosphorylation levels” value in test [5] is “did not change”.
With `CS(=O)(=O)c1ccc(C(O)C(O)Cn2c3ccccc3c3ccccc32)cc1` (stereo not drawn) [HLCL-17&20], the pIC50 in test [1] and in test [2] (setting [6]) was under 4.30 in each case.
For the compound `CCn1c2ccccc2c2cc(/C=N/Nc3ccc(S(C)(=O)=O)cc3)ccc21` [HLCL-12], the pIC50 in test [1] and in test [2] (setting [6]) was under 4.30 in each case.
For the compound `CS(=O)(=O)c1ccc(/C=C\Cn2c3ccccc3c3ccccc32)cc1` [HLCL-64], the “inhibition of PRMT1 enzyme” value on recombinant PRMT1 (10 μM, FIG. 17B) is “this non-specific activity is lost”; at recombinant PRMT1 (20 μM and above, FIG. 17A), “non-specific inhibition”. Besides, the pIC50 in test [1] is under 4.30; in test [3], about 5.30; in test [2] (setting [6]), under 4.30. Moreover, the “inhibition of PRMT5 enzyme” value in test [3] was “the only enzyme that is affected is PRMT5”.
